Experiments:
[1] = test system: dendritic cells
[2] = test system: BMDCs
[3] = test system: MoDCs

FITC-linker-YGRRARRRRRRIYSIKDTKLGN-biotin [CTP-SEB2]
peptide permeability in DCs (peptide-FITC in CD11c+ CD80+ population) [1]: permeated a large amount of peptide | permeability effect (degree of fluorescent labeling of cells) [2]: permeability effect is greater | penetration of peptide into MoDCs [3]: penetrated MoDCs much more
